Experiments:
[1] = test system: Mycobacterium tuberculosis Erdman (autoluminescent); test: GRinf, maximum normalised growth rate inhibition (unitless (-1 to 1)); higher = less effect (negative = killing)
Procedure: (§1)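 DiaMOND equipotent two-drug combination dose responses against autoluminescent M. tuberculosis Erdman in 8 in vitro models. Read-out is OD600, or luminescence for the intracellular and dormancy models, normalised to untreated wells. Hill-fit Einf, AUC25 and GRinf are potency metrics; FIC50 and FIC90 are Loewe-additivity fractional inhibitory concentrations, given as log2 (negative = synergy). Replicates are averaged.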

[2] = test system: Mycobacterium tuberculosis Erdman (autoluminescent); test: Einf, fitted maximum growth inhibition of combination (fraction); higher = stronger maximal inhibition
Procedure: as §1

[3] = test system: Mycobacterium tuberculosis Erdman (autoluminescent); test: FIC50 (Loewe) at 50% inhibition (log2); higher = more antagonistic
Procedure: as §1

[4] = test system: Mycobacterium tuberculosis Erdman (autoluminescent); test: FIC90 (Loewe) at 90% inhibition (log2); higher = more antagonistic
Procedure: as §1

[5] = test system: Mycobacterium tuberculosis Erdman (autoluminescent); test: AUC25, normalised area under dose response up to IC25 (fraction (0-1)); higher = more potent at low dose
Procedure: as §1

[6] = in vitro model: acidic pH 5.7, time point: constant (~7 days, model-specific)
[7] = in vitro model: acidic pH 5.7, time point: terminal (~4-5 doublings, model-specific)
[8] = in vitro model: butyrate, time point: constant (~7 days, model-specific)
[9] = in vitro model: butyrate, time point: terminal (~4-5 doublings, model-specific)
[10] = in vitro model: cholesterol 0.05 mM, time point: constant (~7 days, model-specific)
[11] = in vitro model: cholesterol 0.05 mM, time point: terminal (~4-5 doublings, model-specific)
[12] = in vitro model: cholesterol-high 0.2 mM, time point: constant (~7 days, model-specific)
[13] = in vitro model: cholesterol-high 0.2 mM, time point: terminal (~4-5 doublings, model-specific)
[14] = in vitro model: dormancy (butyrate + nitrate, low O2), time point: constant (~7 days, model-specific)
[15] = in vitro model: dormancy (butyrate + nitrate, low O2), time point: terminal (~4-5 doublings, model-specific)
[16] = in vitro model: intracellular J774, time point: constant = terminal
[17] = in vitro model: standard 7H9 glycerol, time point: constant = terminal
[18] = in vitro model: valerate, time point: constant (~7 days, model-specific)
[19] = in vitro model: valerate, time point: terminal (~4-5 doublings, model-specific)

In the case of `CC(C)/N=c1\cc2n(-c3ccc(Cl)cc3)c3ccccc3nc-2cc1Nc1ccc(Cl)cc1` [clofazimine] + CC(=O)NC[C@H]1CN(c2ccc(N3CCOCC3)c(F)c2)C(=O)O1 [linezolid], the GRinf [1, 6] was -0.00597, the GRinf [1, 7] was -0.305 and the GRinf [1, 8] was -0.158. It also gave a GRinf [1, 9] of -0.142, a GRinf [1, 10] of -0.0419 and a GRinf [1, 11] of -0.35. The GRinf [1, 12] was -0.536, the GRinf [1, 13] was -0.854 and the GRinf [1, 14] was 0.239. It also gave a GRinf [1, 15] of -0.123, a GRinf [1, 16] of -0.0533 and a GRinf [1, 17] of -0.276. It also gave a GRinf [1, 18] of -0.186, a GRinf [1, 19] of -0.107 and an Einf [2, 6] of 0.864. For the same compound, the Einf [2, 7] was 0.973, the Einf [2, 8] was 0.957 and the Einf [2, 9] was 0.98. For the same compound, the Einf [2, 10] was 0.747, the Einf [2, 11] was 0.951 and the Einf [2, 12] was 0.917. The Einf [2, 13] was 0.994, the Einf [2, 14] was 0.901 and the Einf [2, 15] was 0.981. The Einf [2, 16] was 0.855, the Einf [2, 17] was 0.979 and the Einf [2, 18] was 0.925. It also gave an Einf [2, 19] of 0.944, an FIC50 [3, 6] of 0.346 and an FIC50 [3, 7] of 0.329. The FIC50 [3, 8] was 0.573, the FIC50 [3, 9] was 0.626 and the FIC50 [3, 10] was -0.262. For the same compound, the FIC50 [3, 11] was -0.033, the FIC50 [3, 12] was 0.143 and the FIC50 [3, 13] was -0.317. It also gave an FIC50 [3, 14] of 1.67, an FIC50 [3, 15] of 1.05 and an FIC50 [3, 17] of 0.286. The FIC50 [3, 18] was -0.104, the FIC50 [3, 19] was 0.165 and the FIC90 [4, 7] was 0.0194. It also gave an FIC90 [4, 8] of 0.875, an FIC90 [4, 9] of 0.85 and an FIC90 [4, 11] of 1.4. It also gave an FIC90 [4, 12] of 1.38, an FIC90 [4, 13] of 0.449 and an FIC90 [4, 14] of 0.93. The FIC90 [4, 15] was 0.839, the FIC90 [4, 16] was 0.457 and the FIC90 [4, 17] was 0.696. For the same compound, the FIC90 [4, 18] was 0.827, the FIC90 [4, 19] was 0.597 and the AUC25 [5, 6] was 0.0778. For the same compound, the AUC25 [5, 7] was 0.111, the AUC25 [5, 8] was 0.113 and the AUC25 [5, 9] was 0.0908. The AUC25 [5, 10] was 0.152, the AUC25 [5, 11] was 0.164 and the AUC25 [5, 12] was 0.131. It also gave an AUC25 [5, 13] of 0.133, an AUC25 [5, 14] of 0.0454 and an AUC25 [5, 15] of 0.0463. For the same compound, the AUC25 [5, 17] was 0.117, the AUC25 [5, 18] was 0.148 and the AUC25 [5, 19] was 0.0982.
Compound `NC(=O)c1cnccn1` [pyrazinamide] + CO[C@H]1/C=C/O[C@@]2(C)Oc3c(C)c(O)c4c(O)c(c(/C=N/N5CCN(C6CCCC6)CC5)c(O)c4c3C2=O)NC(=O)/C(C)=C\C=C\[C@H](C)[C@H](O)[C@@H](C)[C@@H](O)[C@@H](C)[C@H](OC(C)=O)[C@@H]1C [rifapentine] has a GRinf [1, 6] of -0.369, a GRinf [1, 7] of -0.31 and a GRinf [1, 8] of 0.119. The GRinf [1, 9] was 0.108, the GRinf [1, 10] was 0.0214 and the GRinf [1, 11] was -0.284. For the same compound, the GRinf [1, 12] was -0.246, the GRinf [1, 13] was -0.711 and the GRinf [1, 14] was 0.258. It also gave a GRinf [1, 15] of -0.142, a GRinf [1, 16] of -0.243 and a GRinf [1, 17] of 0.219. For the same compound, the GRinf [1, 18] was 0.299, the GRinf [1, 19] was 0.155 and the Einf [2, 6] was 0.93. The Einf [2, 7] was 0.997, the Einf [2, 8] was 0.875 and the Einf [2, 9] was 0.941. For the same compound, the Einf [2, 10] was 0.63, the Einf [2, 11] was 0.896 and the Einf [2, 12] was 0.922. It also gave an Einf [2, 13] of 1, an Einf [2, 14] of 0.902 and an Einf [2, 15] of 0.982. It also gave an Einf [2, 16] of 0.964, an Einf [2, 17] of 0.866 and an Einf [2, 18] of 0.684. The Einf [2, 19] was 0.892, the FIC50 [3, 6] was -0.598 and the FIC50 [3, 7] was -0.129. For the same compound, the FIC50 [3, 8] was 0.371, the FIC50 [3, 9] was 0.431 and the FIC50 [3, 11] was 0.52. For the same compound, the FIC50 [3, 12] was 0.664, the FIC50 [3, 13] was 1.19 and the FIC50 [3, 14] was -0.609. The FIC50 [3, 15] was -0.14, the FIC50 [3, 17] was -0.0174 and the FIC50 [3, 18] was 0.675. It also gave an FIC50 [3, 19] of 0.752, an FIC90 [4, 7] of -1.04 and an FIC90 [4, 8] of 1.25. For the same compound, the FIC90 [4, 9] was 1, the FIC90 [4, 13] was 0.905 and the FIC90 [4, 14] was 1.09. The FIC90 [4, 15] was -0.0574, the FIC90 [4, 16] was -0.235 and the FIC90 [4, 19] was 0.534. For the same compound, the AUC25 [5, 6] was 0.0839, the AUC25 [5, 7] was 0.0754 and the AUC25 [5, 8] was 0.109. The AUC25 [5, 9] was 0.0943, the AUC25 [5, 10] was 0.127 and the AUC25 [5, 11] was 0.105. The AUC25 [5, 12] was 0.0949, the AUC25 [5, 13] was 0.0793 and the AUC25 [5, 14] was 0.0917. It also gave an AUC25 [5, 15] of 0.0455, an AUC25 [5, 17] of 0.0487 and an AUC25 [5, 18] of 0.0445. It also gave an AUC25 [5, 19] of 0.0349.

From the supplement of paper PMC8617591
